Measurements taken from the NIST ThermoML archive (doi:10.1007/s10765-006-0063-0).

Legend:
[1] = xn = mol fraction of the nth substance listed; conditions: 101 kPa, Liquid, Sing-around technique in a fixed-path interferometer
[2] = 101.33 kPa, Liquid; for speed of sound: Sing-around technique in a fixed-path interferometer

C1CCCC1 [cyclopentane] + C1COCCO1
[1]
Conditions	speed of sound [m/s]
283.15 K, x2 = 0.0516	1280.7
283.15 K, x2 = 0.095	1279.4
283.15 K, x2 = 0.1944	1280.5
283.15 K, x2 = 0.2987	1286
283.15 K, x2 = 0.3973	1294.2
283.15 K, x2 = 0.499	1305.8
283.15 K, x2 = 0.6003	1320.5
283.15 K, x2 = 0.7063	1339.6
283.15 K, x2 = 0.8072	1361
283.15 K, x2 = 0.9076	1385.1
283.15 K, x2 = 0.9528	1397
298.15 K, x2 = 0.0488	1204.5
298.15 K, x2 = 0.0945	1203.8
298.15 K, x2 = 0.1818	1205.5
298.15 K, x2 = 0.2983	1211.9
298.15 K, x2 = 0.3959	1221.4
298.15 K, x2 = 0.4962	1234.1
298.15 K, x2 = 0.6067	1251.5
298.15 K, x2 = 0.7034	1269.8
298.15 K, x2 = 0.811	1293.3
298.15 K, x2 = 0.9025	1316.4
298.15 K, x2 = 0.9506	1329.6
313.15 K, x2 = 0.0449	1128.5
313.15 K, x2 = 0.094	1128.3
313.15 K, x2 = 0.195	1131.3
313.15 K, x2 = 0.2962	1138.6
313.15 K, x2 = 0.3969	1149.5
313.15 K, x2 = 0.4983	1163.6
313.15 K, x2 = 0.5994	1180.8
313.15 K, x2 = 0.6987	1200.2
313.15 K, x2 = 0.8026	1223.8
313.15 K, x2 = 0.9066	1250.8
313.15 K, x2 = 0.9482	1263

C1COCCO1 [1,4-dioxane]
[2]
Conditions	mass density [kg/m3]	speed of sound [m/s]
283.15 K	1045.2	1409.6
298.15 K	1027.9	1343.6
313.15 K	1011	1278.8

c1ccccc1 [benzene]
[2]
Conditions	mass density [kg/m3]	speed of sound [m/s]
283.15 K	889.9	1368.7
298.15 K	873.5	1298.3
313.15 K	857.5	1229.5

C1CCCC1 [cyclopentane] + C1COCO1
[1]
Conditions	speed of sound [m/s]
283.15 K, x2 = 0.101	1277.3
283.15 K, x2 = 0.2019	1275.8
283.15 K, x2 = 0.3024	1278.6
283.15 K, x2 = 0.4023	1285
283.15 K, x2 = 0.5028	1295.3
283.15 K, x2 = 0.6	1307.9
283.15 K, x2 = 0.6995	1325.7
283.15 K, x2 = 0.796	1347.3
283.15 K, x2 = 0.8999	1375.7
298.15 K, x2 = 0.0998	1201.4
298.15 K, x2 = 0.1993	1200.8
298.15 K, x2 = 0.3005	1204.5
298.15 K, x2 = 0.4041	1212
298.15 K, x2 = 0.5024	1222.7
298.15 K, x2 = 0.6002	1236.4
298.15 K, x2 = 0.7004	1255.5
298.15 K, x2 = 0.7988	1278.8
298.15 K, x2 = 0.8992	1307.4
313.15 K, x2 = 0.1028	1125.3
313.15 K, x2 = 0.2032	1125.9
313.15 K, x2 = 0.3014	1130.2
313.15 K, x2 = 0.403	1138.5
313.15 K, x2 = 0.5008	1150
313.15 K, x2 = 0.6008	1165.5
313.15 K, x2 = 0.6991	1184.8
313.15 K, x2 = 0.7991	1209
313.15 K, x2 = 0.8987	1237.8

C1CCCC1 [cyclopentane]
[2]
Conditions	mass density [kg/m3]	speed of sound [m/s]
283.15 K	754.9	1283.5
298.15 K	739.7	1206.6
313.15 K	724.7	1129.9

C1COCCO1 [1,4-dioxane] + C1CCCCC1
[1]
Conditions	speed of sound [m/s]
283.15 K, x1 = 0.0502	1323.1
283.15 K, x1 = 0.0999	1319.7
283.15 K, x1 = 0.1953	1315.8
283.15 K, x1 = 0.2899	1315.6
283.15 K, x1 = 0.3996	1318.4
283.15 K, x1 = 0.5017	1324.5
283.15 K, x1 = 0.6007	1333.5
283.15 K, x1 = 0.699	1346.1
283.15 K, x1 = 0.7956	1362.2
283.15 K, x1 = 0.8994	1383.9
283.15 K, x1 = 0.9446	1394.9
298.15 K, x1 = 0.0535	1250
298.15 K, x1 = 0.1053	1246.9
298.15 K, x1 = 0.1998	1244.4
298.15 K, x1 = 0.3003	1245
298.15 K, x1 = 0.4026	1248.6
298.15 K, x1 = 0.5006	1255.2
298.15 K, x1 = 0.5971	1264.5
298.15 K, x1 = 0.7028	1278.6
298.15 K, x1 = 0.8089	1296.9
298.15 K, x1 = 0.9038	1318.4
298.15 K, x1 = 0.9485	1330.2
313.15 K, x1 = 0.0497	1177.3
313.15 K, x1 = 0.102	1174.3
313.15 K, x1 = 0.1944	1172.4
313.15 K, x1 = 0.2926	1173.7
313.15 K, x1 = 0.3973	1178.3
313.15 K, x1 = 0.4969	1185.8
313.15 K, x1 = 0.5992	1196.7
313.15 K, x1 = 0.6988	1211
313.15 K, x1 = 0.7966	1229
313.15 K, x1 = 0.8972	1251.3
313.15 K, x1 = 0.9505	1264.9
